Tested on: T. vitrinus L3 larvae
Test: Testing of compounds on T. vitrinus L3 larvae (96-well microplate larval kill assay)
Assay type: cell-based, Trichostrongylus vitrinus
Conditions: primary screening, 5 mM compound, 5% DMSO, overnight RT
Method: The ability of the compounds to kill T. vitrinus L3 larvae was tested. The L3 stage is encased in a sheath, which protects the larva from external stresses such as desiccation and chemicals. This makes it more difficult to kill this part of the lifecycle with chemotherapeutic agents. The tests will determine which compounds can kill this lifestage, therefore defining which compounds can penetrate through the sheath and subsequently kill the larva.
The L3 stage of T. vitrinus were collected and stored in water at 4° C. until needed. Each compound was suspended in 100% dimethyl sulphoxide (DMSO) to a final concentration of 100 mM.
Around fifty L3 larvae were added, in 95 μl of water, to the wells of a 96-well microtitre plate. The plate was incubated overnight RT. Plates were viewed under a binocular microscope and the proportion of dead L3 larvae in the controls and each treatment were scored. Concentrations above 5 mM were not tested as DMSO alone kills larvae when the proportion exceeds 5% of the total volume. Many of the compounds are predicted to have limited solubility in aqueous solution, thus requiring the presence of organic solvent. The appropriate controls included wells with and without various concentrations of DMSO alone.
Three compounds ((4), (10) and (20)) could also kill 100% of larvae exposed at 0.5 mM.

Structure (SMILES)	% of T. vitrinus L3 larvae killed [%]
CCCN1C(=O)C2C(C1=O)[C@H]1CC[C@@H]2O1 (some centres unmarked) [Compound 4, N-propyl-7-Oxabicyclo(2.2.1)heptane-2,3-dicarboximide]	100
O=C(O)C1C(C(=O)NCCN2CCOCC2)[C@H]2CC[C@@H]1O2 (some centres unmarked) [Compound 12, 3-(Ethylmorpholinecarbamoyl)-7-Oxabicyclo(2.2.1)heptane-2-carboxylic acid]	100
CCCCCCCCCCN1C(=O)C2C3CCC(O3)C2C1=O (centres unmarked) [Compound 7, N-decyl-7-Oxabicyclo(2.2.1)heptane-2,3-dicarboximide]	100
CCCCCCCCN1C(=O)C2C3CCC(O3)C2C1=O (centres unmarked) [Compound 6, N-octyl-7-Oxabicyclo(2.2.1)heptane-2,3-dicarboximide]	100
O=C(O)C(Cc1ccc(O)cc1)N1C(=O)C2C(C1=O)[C@H]1CC[C@@H]2O1 (some centres unmarked) [Compound 19]	100
O=C1NC(=O)C2C1[C@@H]1CC[C@H]2O1 (stereo partly drawn) [Compound 20, exo-7-Oxabicyclo(2.2.1)heptane-2,3-dicarboximide]	100
CCCCN1C(=O)C2C3CCC(O3)C2C1=O (centres unmarked) [Compound 5, N-butyl-7-Oxabicyclo(2.2.1)heptane-2,3-dicarboximide]	100

Same assay, conditions: secondary screening, serial ten-fold dilutions, 0.5 mM

Structure (SMILES)	% of T. vitrinus L3 larvae killed [%]
CCCN1C(=O)C2C(C1=O)[C@H]1CC[C@@H]2O1 (some centres unmarked) [Compound 4, N-propyl-7-Oxabicyclo(2.2.1)heptane-2,3-dicarboximide]	100
O=C1NC(=O)C2C1[C@@H]1CC[C@H]2O1 (stereo partly drawn) [Compound 20, exo-7-Oxabicyclo(2.2.1)heptane-2,3-dicarboximide]	100

Tested on: H. contortus L3 larvae
Test: Testing compounds on H. contortus L3 larvae (96-well microplate larval kill assay)
Assay type: cell-based, Haemonchus contortus
Conditions: secondary screening, sequential ten-fold dilutions of 5 mM down to 0.5
Method: The L3 stage of H. contortus was collected from the faeces of experimentally infected sheep and stored in water at room temperature until needed. A stock solution of each compound was prepared by suspending the compound in 100% dimethyl sulphoxide (DMSO) to a final concentration of 100 mM.
For this set of experiments, Trichostrongylus vitrinus (T. vitrinus) L3 larvae were used as positive controls by testing with the compounds identified in previous experiments as being able to kill all larvae. Approximately 50 L3 larvae of each species were added, in 95 μl of water, to the wells of a 96-well microtitre plate. All compounds were tested initially at a concentration of 5 mM by adding 5 μl of inhibitor in 100% DMSO.
The plates were incubated overnight at room temperature (RT). Plates were viewed under a binocular microscope and the compounds showing 100% kill of H. contortus larvae were determined. Concentrations above 5 mM were not tested as DMSO alone kills larvae when the proportion exceeds 5% of the total volume. Many of the compounds are predicted to have limited solubility in aqueous solution, thus requiring the presence of organic solvent. Additional controls included wells with and without various concentrations of DMSO alone.
Eight inhibitors, from the primary screening, appeared to kill 90-100% of H. contortus L3 larvae at a concentration of 5 mM. […]

Structure (SMILES)	killing of H. contortus L3 larvae across the dilution series
O=C1C2C(C(=O)N1CCO)[C@H]1CC[C@@H]2O1 (some centres unmarked) [Compound 15, N-Ethyl alcohol-7-Oxabicyclo(2.2.1)heptane-2,3-dicarboximide]	killed the larvae at the highest and lowest concentrations used

Tested on: not given
Test: not given
Conditions: not given

Structure (SMILES)	melting point [°C]
CC(C)(CO)C12CCC(O1)C1C(=O)NC(=O)C12 (centres unmarked)	134 to 136
COc1ccc(CC23CCC(O2)C2C(=O)NC(=O)C23)cc1 (centres unmarked)	83 to 85
C=CCC12CCC(O1)C1C(=O)NC(=O)C12 (centres unmarked)	116 to 117
O=C(O)CCCCCN1C(=O)C2C(C1=O)[C@H]1CC[C@@H]2O1 (some centres unmarked) [Compound 14, N-Hexanoic acid-7-Oxabicyclo(2.2.1)heptane-2,3-dicarboximide]	110 to 112
O=C1NC(=O)C2C1C1CCC2(c2ccc([N+](=O)[O-])cc2)O1 (centres unmarked)	207 to 209
CCc1ccccc1NC(=O)C1C(C(=O)O)[C@@H]2CC[C@H]1O2 (stereo in doubt)	171 to 172
CCCCCCCCNC(=O)C1C(C(=O)O)[C@@H]2CC[C@H]1O2 (stereo in doubt)	131
CCC12CCC(O1)C1C(=O)NC(=O)C12 (centres unmarked)	166 to 169
C=CCCN1C(=O)C2C(C1=O)[C@H]1CC[C@@H]2O1 (some centres unmarked)	64 to 65
O=C1C2C(C(=O)N1CCO)[C@H]1CC[C@@H]2O1 (some centres unmarked) [Compound 15, N-Ethyl alcohol-7-Oxabicyclo(2.2.1)heptane-2,3-dicarboximide]	164 to 166
O=C1NC(=O)C2C1C1CCC2(N2CCOCC2)O1 (centres unmarked)	169 to 171
CCCCCCCCCCCCCCC12CCC(O1)C1C(=O)NC(=O)C12 (centres unmarked)	45 to 46
O=C(O)c1ccc(NC(=O)C2C(C(=O)O)[C@@H]3CC[C@H]2O3)cc1Cl (stereo in doubt)	216 to 217
O=C1C2C(C(=O)N1c1ncccc1OCc1ccccc1)[C@H]1CC[C@@H]2O1 (some centres unmarked) [Compound 77, 3-[3-(Benzyloxy)pyridin-2-yl]-10-oxa-4-azatricyclo[5.2.1]decane-3,5-dione]	99 to 102
CC(C)(C)c1ccccc1NC(=O)C1C(C(=O)O)[C@@H]2CC[C@H]1O2 (some centres unmarked)	163 to 164
CC(CO)C12CCC(O1)C1C(=O)NC(=O)C12 (centres unmarked)	104 to 107
Cn1ccc2c(CNC(=O)C3C(C(=O)O)[C@@H]4CC[C@H]3O4)cccc21 (stereo in doubt) [Compound 80, 3-[(1-Methyl-1H-indol-4-yl)methylcarbamoyl]-7-oxabicyclo[2.2.1]heptane-2-carboxylic acid]	161
CN(C)CCOc1ccc(N2C(=O)C3C(C2=O)[C@H]2CC[C@@H]3O2)cc1 (some centres unmarked)	145 to 146
O=C(O)C1C(C(=O)NC2CCN(Cc3ccccc3)CC2)[C@H]2CC[C@@H]1O2 (stereo in doubt)	124 to 125

Structure (SMILES)	melting point [°C]
O=C(O)C1C(C(=O)NCC2OCCc3sccc32)[C@H]2CC[C@@H]1O2 (some centres unmarked) [Compound 81, 3,[(6,7-Dihydro-4H-thieno[3,2-c]pyran-4-yl)methylcarbamoyl]-7-oxabicyclo[2.2.1]heptane-2-carboxylic acid]	159 to 160
CCCCCCCCCCCCCCCCCCC12CCC(O1)C1C(=O)NC(=O)C12 (centres unmarked)	62 to 64
O=C(O)CCCCCCCNC(=O)C1C(C(=O)O)[C@@H]2CC[C@H]1O2 (stereo in doubt) [Compound 18, 3-(7-Carboxyheptylcarbamoyl)-7-oxabicyclo[2.2.1]heptane-2-carboxylic acid]	125 to 126
O=C1NC(=O)C2C1C1CCC2(c2ccccc2)O1 (centres unmarked)	171 to 172
CCCCN(C(=O)C1C2CCC(O2)C1C(=O)O)c1ccccc1 (centres unmarked)	105 to 107
O=C1NC(=O)C2C1C1CCC2(C2CCCCC2)O1 (centres unmarked)	97 to 99
CCCCCCCCCCNC(=O)C1C(C(=O)O)[C@@H]2CC[C@H]1O2 (stereo in doubt)	110 to 111
C=CCNC(=O)C1C(C(=O)O)[C@@H]2CC[C@H]1O2 (stereo in doubt)	105 to 107
CCCCCCCCCCCCC12CCC(O1)C1C(=O)NC(=O)C12 (centres unmarked)	35 to 37
COC(CO)CN1C(=O)[C@@H]2[C@H](C1=O)[C@H]1CC[C@@H]2O1 (some centres unmarked) [Compound 16, N-2-Methoxypropyl-1-ol-7-Oxabicyclo(2.2.1)heptane-2,3-dicarboximide]	96 to 97
O=C(O)C1C(C(=O)N2CCCCC2)[C@H]2CC[C@@H]1O2 (some centres unmarked)	140 to 142
CCC(C)C12CCC(O1)C1C(=O)NC(=O)C12 (centres unmarked)	44 to 46
O=C(O)CCCN1C(=O)C2C(C1=O)[C@H]1CC[C@@H]2O1 (some centres unmarked) [Compound 13, N-Butanoic acid-7-Oxabicyclo(2.2.1)heptane-2,3-dicarboximide]	162 to 164
COc1ccc(CC23CCC(O2)C2C(=O)NC(=O)C23)cc1OC (centres unmarked)	155 to 157
Nc1ccccc1CC12CCC(O1)C1C(=O)NC(=O)C12 (centres unmarked)	159 to 160
CN(C)CCOc1ccccc1N1C(=O)C2C(C1=O)[C@H]1CC[C@@H]2O1 (some centres unmarked) [Compound 79, 4,{2,[2-(Dimethylamino)ethoxy]phenyl}-10-oxa-4-azatricyclo[5.2.1]decane-3,5-dione]	113 to 115
O=C1NC(=O)C2C1C1CCC2(CCCO)O1 (centres unmarked)	164 to 166
O=C1NC(=O)C2C1C1CCC2(CCCCCCO)O1 (centres unmarked)	56 to 57

From patent publication US20100137294A1, “COMPOUNDS, COMPOSITIONS AND METHODS FOR CONTROLLING INVERTEBRATE PESTS” (GENETIC TECHNOLOGIES LIMITED, priority 2006, published 2010)
